The record followed here is US11420975B2, “Substituted imidazo[1,5-a]pyrazines as Bruton's tyrosine kinase inhibitors” (TRANSTHERA SCIENCES (NANJING), INC., priority 2018, dated 2022).

The structures appear in SMILES notation.

One test addresses BTK(wt) (Homo sapiens (Human), UniProt Q06187). The test can be described thus: In vitro inhibitory activity against BTK(wt) enzyme (33P-ATP filter binding). The test is classed as biochemical. Particulars: class symbols. How it is done: (§1) The substrate solution was prepared by adding the substrate poly(Glu, Tyr) sodium salt (Sigma Aldrich, St. Louis, Mo.) to the substrate reaction buffer (20 mM Hepes (pH 7.5), 10 mM MgCl2, 1 mM EGTA, 0.02% Brij35, 0.02 mg/mL BSA, 0.1 mM Na3VO4, 2 mM DTT and 1% DMSO) (final substrate concentration in the reaction solution was 0.2 μM). Test compound was formulated into stock solutions at 10 mM concentration with 100% DMSO, and 3-fold serial dilution for 10 doses was performed in a 384-well cyclic olefin copolymer LDV microplate. […] Test compound in 100% DMSO was then added to the kinase reaction mixture by acoustic liquid transfer technology (Echo 550; nanoliter range) (Labcyte Inc, Sunnyvale, Calif.) and incubated for 20 min at room temperature. 33P-ATP (specific activity 10 μCi/μL) was added to the reaction mixture to initiate the reaction, followed by incubation at room temperature for 2 h. A small portion of the reaction mixture was dropped onto P-81 ion exchange filter paper (Whatman). After washing the unbound phosphate from the filter paper with 0.75% phosphate buffer (three times) and drying, the remaining radioactivity on the filter paper was measured. The kinase activity was expressed as the percentage of the remaining kinase activity in the test sample to the kinase activity in the vehicle (dimethyl sulfoxide) blank control. IC50 values were calculated by curve fitting the data obtained using Prism (GraphPad Software).

A further test addresses BTK(C481S) (Homo sapiens (Human), UniProt Q06187, C481S). As to the kind of experiment: In vitro inhibitory activity against BTK(C481S) enzyme (33P-ATP filter binding). The test is classed as biochemical. Particulars: class symbols; read-out: IC50 BTK(C48IS). How it is done:
as §1

BTK(wt), sequence (Q06187 whole entry): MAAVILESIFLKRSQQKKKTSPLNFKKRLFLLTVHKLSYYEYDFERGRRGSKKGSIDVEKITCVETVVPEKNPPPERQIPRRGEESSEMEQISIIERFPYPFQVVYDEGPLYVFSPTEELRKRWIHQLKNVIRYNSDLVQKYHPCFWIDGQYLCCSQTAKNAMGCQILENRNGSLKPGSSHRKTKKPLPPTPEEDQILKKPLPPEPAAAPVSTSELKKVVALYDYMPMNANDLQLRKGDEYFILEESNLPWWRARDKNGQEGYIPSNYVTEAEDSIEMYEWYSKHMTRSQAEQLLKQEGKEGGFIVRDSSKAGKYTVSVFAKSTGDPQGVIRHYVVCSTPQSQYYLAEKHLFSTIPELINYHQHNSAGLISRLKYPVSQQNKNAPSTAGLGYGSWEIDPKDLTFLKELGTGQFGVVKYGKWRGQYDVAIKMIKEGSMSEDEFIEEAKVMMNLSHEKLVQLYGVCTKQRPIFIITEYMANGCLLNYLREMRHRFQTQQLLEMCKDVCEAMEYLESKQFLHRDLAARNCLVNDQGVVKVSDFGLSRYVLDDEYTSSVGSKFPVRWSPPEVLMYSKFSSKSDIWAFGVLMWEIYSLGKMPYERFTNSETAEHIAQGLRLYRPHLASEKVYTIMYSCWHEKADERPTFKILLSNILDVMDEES
BTK(C481S), sequence (Q06187 whole entry C481S): as the sequence (Q06187 whole entry) above, with C481S counted along it

Take `COCCC(=O)NC12CCC(c3nc(-c4ccc(CNC(=O)c5cc(F)ccc5OC)cc4)c4c(N)nccn34)(CC1)C2` [Compound A-16-2, N-(4-(8-amino-3-(4-(3-methoxypropanamido)bicyclo[2.2.1]heptan-1-yl)imidazo[1,5-a]pyrazin-1-yl)benzyl)-5-fluoro-2-methoxybenzamide]: the IC50 on BTK(wt) and at BTK(C481S) was 1 to 10 nM throughout.

`CC#CC(=O)NC12CCC(c3nc(-c4ccc(Oc5ccccc5)cc4)c4c(N)nccn34)(CC1)C2` [Compound A-7-14, N-(4-(8-amino-1-(4-phenoxyphenyl)imidazo[1,5-a]pyrazin-3-yl)bicyclo[2.2.1]heptan-1-yl)but-2-ynamide]: the IC50 on BTK(wt) was in the range of 1 to 10 nM; on BTK(C481S) it was 0.1 to 1 nM.

For `Nc1nccn2c(C34CCC(NC(=O)c5ccco5)(CC3)C4)nc(-c3ccc(C(=O)Nc4cc(C(F)(F)F)ccn4)cc3)c12` [Compound A-10-21, N-(4-(8-amino-1-(4-((4-(trifluoromethyl)pyridin-2-yl)carbamoyl)phenyl)imidazo[1,5-a]pyrazin-3-yl)bicyclo[2.2.1]heptan-1-yl)furan-2-carboxamide], the IC50 on BTK(wt) and on BTK(C481S) was 1 to 10 nM throughout.

In the case of `CC#CC(=O)NC12CCC(c3nc(-c4ccc(C(=O)Nc5cc(C#N)ccn5)cc4)c4c(N)nccn34)(CC1)C2` [Compound A-7-5, 4-(8-amino-3-(4-(but-2-ynamido)bicyclo[2.2.1]heptan-1-yl)imidazo[1,5-a]pyrazin-1-yl)-N-(4-cyanopyridin-2-yl)benzamide], the values for the IC50 at BTK(wt) and on BTK(C481S) were 1 to 10 nM and 0.1 to 1 nM, respectively.

As for `Nc1nccn2c(C34CCC(NC(=O)CN5CCOCC5)(CC3)C4)nc(-c3ccc(Oc4ccccc4)cc3)c12` [Compound A-13-4, N-(4-(8-amino-1-(4-phenoxyphenyl)imidazo[1,5-a]pyrazin-3-yl)bicyclo[2.2.1]heptan-1-yl)-2-morpholinoacetamide], the IC50 on BTK(wt) lay in the range of 10 to 50 nM; at BTK(C481S), 1 to 10 nM.

As to `CC1(C(=O)NC23CCC(c4nc(-c5ccc(Oc6ccccc6)cc5)c5c(N)nccn45)(CC2)C3)COC1` [Compound A-13-3, N-(4-(8-amino-1-(4-phenoxyphenyl)imidazo[1,5-a]pyrazin-3-yl)bicyclo[2.2.1]heptan-1-yl)-3-methyloxetane-3-carboxamide], the IC50 at BTK(wt) and at BTK(C481S) was 1 to 10 nM in each case.

In the case of `COCCC(=O)NC12CCC(n3cc(-c4ccc(C(=O)Nc5cc(C(F)(F)F)ccn5)cc4)c4c(N)ncnc43)(CC1)C2` [Compound B-6-3, 4-(4-amino-7-(4-(3-methoxypropanamido)bicyclo[2.2.1]heptan-1-yl)-7H-pyrrolo[2,3-d]pyrimidin-5-yl)-N-(4-(trifluoromethyl)pyridin-2-yl)benzamide], the IC50 on BTK(wt) and on BTK(C481S) was 1 to 10 nM in each case.

Regarding `Nc1nccn2c(C34CCC(NC(=O)c5ccccn5)(CC3)C4)nc(-c3ccc(C(=O)Nc4cc(C(F)(F)F)ccn4)cc3)c12` [Compound A-10-18, N-(4-(8-amino-1-(4-((4-(trifluoromethyl)pyridin-2-yl)carbamoyl)phenyl)imidazo[1,5-a]pyrazin-3-yl)bicyclo[2.2.1]heptan-1-yl)picolinamide], the values for the half-inhibitory concentration (IC50) on BTK(wt) and at BTK(C481S) were 10 to 50 nM and 1 to 10 nM, respectively.

As to `CC#CC(=O)NC12CCC(c3nc(-c4ccc(CNC(=O)c5cc(F)ccc5OC)cc4)c4c(N)nccn34)(CC1)C2` [Compound A-7-12, N-(4-(8-amino-3-(4-(but-2-ynamido)bicyclo[2.2.1]heptan-1-yl)imidazo[1,5-a]pyrazin-1-yl)benzyl)-5-fluoro-2-methoxybenzamide], the IC50 was in the range of 1 to 10 nM on BTK(wt) and 0.1 to 1 nM on BTK(C481S).

In the case of `COc1ccc(F)cc1C(=O)NCc1ccc(-c2nc(C34CCC(NC(=O)CN5CCOCC5)(CC3)C4)n3ccnc(N)c23)cc1` [Compound A-16-4, N-(4-(8-amino-3-(4-(2-morpholinoacetamido)bicyclo[2.2.1]heptan-1-yl)imidazo[1,5-a]pyrazin-1-yl)benzyl)-5-fluoro-2-methoxybenzamide], the IC50 on BTK(wt) and at BTK(C481S) was 1 to 10 nM in each case.

Turning to `COCCC(=O)NC12CCC(c3nc(-c4ccc(C(=O)Nc5cc(C(F)(F)F)ccn5)cc4)c4c(N)nccn34)(CC1)C2` [Compound A-10-8, 4-(8-amino-3-(4-(3-methoxypropanamido)bicyclo[2.2.1]heptan-1-yl)imidazo[1,5-a]pyrazin-1-yl)-N-(4-(trifluoromethyl)pyridin-2-yl)benzamide], the IC50 is 1 to 10 nM on BTK(wt) and no more than 0.1 nM on BTK(C481S).

As for `CC#CC(=O)NC12CCC(n3cc(-c4ccc(C(=O)Nc5cc(C(F)(F)F)ccn5)cc4)c4c(N)ncnc43)(CC1)C2` [Compound B-6-1, 4-(4-amino-7-(4-(but-2-ynamido)bicyclo[2.2.1]heptan-1-yl)-7H-pyrrolo[2,3-d]pyrimidin-5-yl)-N-(4-(trifluoromethyl)pyridin-2-yl)benzamide], the IC50 at BTK(wt) and at BTK(C481S) was 1 to 10 nM each time.

On to `COc1ccc(F)cc1C(=O)NCc1ccc(-c2nc(C34CCC(NC(=O)C5(C)COC5)(CC3)C4)n3ccnc(N)c23)cc1` [Compound A-16-3, N-(4-(8-amino-1-(4-((5-fluoro-2-methoxybenzamido)methyl)phenyl)imidazo[1,5-a]pyrazin-3-yl)bicyclo[2.2.1]heptan-1-yl)-3-methyloxetane-3-carboxamide], for which the IC50 at BTK(wt) and at BTK(C481S) was 1 to 10 nM each time.

On to `Nc1nccn2c(C34CCC(NC(=O)c5nccs5)(CC3)C4)nc(-c3ccc(C(=O)Nc4cc(C(F)(F)F)ccn4)cc3)c12` [Compound A-10-22, N-(4-(8-amino-1-(4-((4-(trifluoromethyl)pyridin-2-yl)carbamoyl)phenyl)imidazo[1,5-a]pyrazin-3-yl)bicyclo[2.2.1]heptan-1-yl)thiazole-2-carboxamide], for which the IC50 on BTK(wt) and at BTK(C481S) was 1 to 10 nM each time.

Turning to `Nc1nccn2c(C34CCC(NC(=O)C5CCCO5)(CC3)C4)nc(-c3ccc(C(=O)Nc4cc(C(F)(F)F)ccn4)cc3)c12` (stereo not drawn) [Compound A-10-11, N-(4-(8-amino-1-(4-((4-(trifluoromethyl)pyridin-2-yl)carbamoyl)phenyl)imidazo[1,5-a]pyrazin-3-yl)bicyclo[2.2.1]heptan-1-yl)tetrahydrofuran-2-carboxamide], the values for the IC50 on BTK(wt) and at BTK(C481S) were 1 to 10 nM and 0.1 to 1 nM, respectively.

`CC#CC(=O)NC12CCC(n3c(=O)n(-c4ccc(C(=O)Nc5cc(C(F)(F)F)ccn5)cc4)c4c(N)ncnc43)(CC1)C2` [Compound C-7-1, 4-(6-amino-9-(4-(but-2-ynamido)bicyclo[2.2.1]heptan-1-yl)-8-oxo-8,9-dihydro-7H-purin-7-yl)-N-(4-(trifluoromethyl)pyridin-2-yl)benzamide]: the IC50 at BTK(wt) and on BTK(C481S) was 1 to 10 nM in each case.

For the compound `CC(C#N)C(=O)NC12CCC(c3nc(-c4ccc(C(=O)Nc5cc(C(F)(F)F)ccn5)cc4)c4c(N)nccn34)(CC1)C2` (stereo not drawn) [Compound A-10-14, 4-(8-amino-3-(4-(2-cyanopropanamido)bicyclo[2.2.1]heptan-1-yl)imidazo[1,5-a]pyrazin-1-yl)-N-(4-(trifluoromethyl)pyridin-2-yl)benzamide], the IC50 lay in the range of 1 to 10 nM at BTK(wt) and 0.1 to 1 nM at BTK(C481S).

With `N#CC1(C(=O)NC23CCC(c4nc(-c5ccc(C(=O)Nc6cc(C(F)(F)F)ccn6)cc5)c5c(N)nccn45)(CC2)C3)CC1` [Compound A-10-12, 4-(8-amino-3-(4-(1-cyanocyclopropanecarboxamido)bicyclo[2.2.1]heptan-1-yl)imidazo[1,5-a]pyrazin-1-yl)-N-(4-(trifluoromethyl)pyridin-2-yl)benzamide], the results for the IC50 at BTK(wt) and at BTK(C481S) were 1 to 10 nM and 0.1 to 1 nM, respectively.

For `COCC(=O)NC12CCC(c3nc(-c4ccc(C(=O)Nc5cc(C(F)(F)F)ccn5)cc4)c4c(N)nccn34)(CC1)C2` [Compound A-10-7, 4-(8-amino-3-(4-(2-methoxyacetamido)bicyclo[2.2.1]heptan-1-yl)imidazo[1,5-a]pyrazin-1-yl)-N-(4-(trifluoromethyl)pyridin-2-yl)benzamide], the IC50 was 1 to 10 nM at BTK(wt) and 0.1 to 1 nM on BTK(C481S).

Regarding `Nc1ncnc2c1c(-c1ccc(C(=O)Nc3cc(C(F)(F)F)ccn3)cc1)cn2C12CCC(NC(=O)CN3CCOCC3)(CC1)C2` [Compound B-6-5, 4-(4-amino-7-(4-(2-morpholinoacetamido)bicyclo[2.2.1]heptan-1-yl)-7H-pyrrolo[2,3-d]pyrimidin-5-yl)-N-(4-(trifluoromethyl)pyridin-2-yl)benzamide], the IC50 on BTK(wt) and at BTK(C481S) was 1 to 10 nM each time.

With `CC#CC(=O)NC12CCC(c3nc(-c4ccc(C(=O)Nc5cc(C(F)(F)F)ccn5)cc4)c4c(N)nccn34)(CC1)C2` [Compound A-7-3, 4-(8-amino-3-(4-(but-2-ynamido)bicyclo[2.2.1]heptan-1-yl)imidazo[1,5-a]pyrazin-1-yl)-N-(4-(trifluoromethyl)pyridin-2-yl)benzamide], the IC50 at BTK(wt) and on BTK(C481S) was 0.1 to 1 nM each time.

The term IC50 denotes the concentration at which inhibition is half-maximal.
